Assay results taken from US12492186B2, “Bicyclic heterocyclic compounds useful as IRAK4 inhibitors” (BRISTOL-MYERS SQUIBB COMPANY, priority 2019, dated 2025).

How the values were obtained:
IRAK4 = IRAK4 (Homo sapiens (Human), UniProt Q9NWZ3); assay: IRAK4 Inhibition Assay; type: biochemical; conditions: ATP 500 μM; IRAK4 0.6 nM; 60 min room temperature; Caliper LABCHIP 3000
Human whole blood = assay: IRAK4 Whole Blood Assay (IL-6 levels after stimulation with TLR2 agonist lipoteichoic acid); type: cell-based; conditions: 10 μg/mL lipoteichoic acid, 5 hours
Procedure, shortened: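 ACD-A anticoagulated human whole blood preincubated with compound 60 min at 37 °C, 5% CO2, then stimulated 5 h with lipoteichoic acid at 10 μg/mL final. IL-6 in supernatants measured by flow cytometry bead assay.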

Sequence of IRAK4 (Q9NWZ3 whole entry, species assumed): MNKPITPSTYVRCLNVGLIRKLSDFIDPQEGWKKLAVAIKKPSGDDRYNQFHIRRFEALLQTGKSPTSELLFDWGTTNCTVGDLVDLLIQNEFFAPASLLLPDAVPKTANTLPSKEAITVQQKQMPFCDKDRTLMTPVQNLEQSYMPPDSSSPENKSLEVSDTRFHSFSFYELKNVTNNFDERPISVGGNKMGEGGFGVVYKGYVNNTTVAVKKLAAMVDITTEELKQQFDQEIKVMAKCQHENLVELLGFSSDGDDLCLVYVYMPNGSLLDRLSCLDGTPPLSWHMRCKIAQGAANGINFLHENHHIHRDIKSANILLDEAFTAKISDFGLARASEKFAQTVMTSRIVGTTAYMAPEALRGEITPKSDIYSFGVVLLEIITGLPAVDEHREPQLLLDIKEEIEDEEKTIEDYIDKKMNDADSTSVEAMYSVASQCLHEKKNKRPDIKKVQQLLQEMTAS

IC50 (IRAK4) [nM]	EC50 (Human whole blood) [nM]	SMILES
3.2	1180	CC1(Nc2c(C(=O)NCCN3CCS(=O)(=O)CC3)cnc3ccc(-c4cn[nH]c4)cc23)CC1 [Example 119, N-(2-(1,1-dioxidothiomorpholino)ethyl)-4-((1-methylcyclopropyl)amino)-6-(1H-pyrazol-4-yl)quinoline-3-carboxamide]
10.5	3220	CC(C)Nc1c(C(=O)NCCCNS(C)(=O)=O)cnc2ccc(-c3cn[nH]c3)cc12 [Example 95, 4-(isopropylamino)-N-(3-(methylsulfonamido)propyl)-6-(1H-pyrazol-4-yl)quinoline-3-carboxamide]
6.4	138	CC(C)Nc1c(C(=O)NCCC(F)(F)F)cnc2ccc(-c3cn[nH]c3)nc12 [Example 142, 4-(isopropylamino)-6-(1H-pyrazol-4-yl)-N-(3,3,3-trifluoropropyl)-1,5-naphthyridine-3-carboxamide]
